≈ marks a conversion by molar mass, not a printed value.
How the values were obtained:
Human TOR = target: T1, Human TOR (Homo sapiens, UniProt P42345); assay: Human TOR (mTOR) kinase assay, DELFIA format; format: biochemical
T1 construct: FLAG
In short: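 Purified FLAG-TOR (800 ng/mL) phosphorylates His6-S6K ([…]) with […] ATP in Hepes pH 7.4 buffer containing MnCl2, 2 h at room temperature. Phospho-Thr389 S6K detected by DELFIA using Europium-labelled anti-P(T389)-p70S6K antibody; enzyme inhibition calculated from signal.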

PI3K = system: T2, PI3K; assay: Fluorescence polarization assay for PI3K; format: biochemical; settings: for IC50: Table 2
T2 construct: PI3K FP IC50
In short: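 PI3K was preincubated with compound at 1% DMSO final, then reacted with PIP2/ATP substrate for 30-60 min. The reaction was stopped with a detector mix giving 10 nM red probe and 70 nM GST-GRP. Fluorescence polarization (mP, Tamra filters) was read 30-90 min later and IC50 determined.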

[1] = system: phosphor-AKT (S473) in Rat1 cells; assay: Rat1-IGF1 assay (IGF-1 induced phospho-AKT immunoblot); format: cell-based, rat; settings: Rattus norvegicus
Description: Rat1 cells are plated in 6-well culture plates and serum-starved for 24 hours. Serum-starved cells are treated either with control vehicle or with various concentrations of 17-HWT for 2 hours, stimulated by IGF-1 (100 ng/mL) for 30 minutes. Total cellular lysates are prepared using NuPAGE-LDS sample buffer (Invitrogen), sonicated and then clarified by centrifugation. Equal amounts of proteins are subject to immunoblotting analysis using NuPAGE electrophoresis system and probed with phosphor-AKT (S473), total AKT antibodies (Signaling Technology).

[2] = system: LNCaP (human prostate carcinoma); assay: Cell proliferation (MTS) assay, LNCaP; format: cell-based; settings: Homo sapiens, LNCaP, 72 h, three days treatment
In short: (§1)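 Cells plated at about 3000 per well in RPMI-1640/10% FBS were dosed with compound one day later. Viability was read by MTS conversion (absorbance 490 nm, 1–2 h) three days after treatment began. Effect is expressed as percent of vehicle-treated growth on the same plate.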

[3] = system: MDA468 (human breast cancer cell); assay: Cell proliferation (MTS) assay, MDA468; format: cell-based; settings: Homo sapiens, 72 h, three days treatment
In short: as §1

[4] = system: MDA435 (human breast adenocarcinoma); assay: Cell proliferation (MTS) assay, MDA435; format: cell-based; settings: Homo sapiens, MDA435, 72 h, three days treatment
In short: as §1

[5] = system: DU145 (human prostate carcinoma/lymphocytic leukemia); assay: Cell proliferation (MTS) assay, DU145; format: cell-based; settings: Homo sapiens, DU-145, 72 h, three days treatment
In short: as §1

| SMILES | IC50 (Human TOR; Table 1) [µM] | PI3K FP IC50 (PI3K; Table 1) [µg/mL] | IC50 ([1]; Table 1) [µg/mL] | IC50 ([2]; Table 1) [µg/mL] | IC50 ([3]; Table 1) [µg/mL] | IC50 ([4]; Table 1) [µg/mL] | IC50 ([5]; Table 1) [µg/mL] | IC50 (Human TOR; Table 2) [µM] | IC50 (PI3K) [µM] | IC50 ([1]; Table 2) [µg/mL] | IC50 ([2]; Table 2) [µg/mL] | IC50 ([3]; Table 2) [µg/mL] | IC50 ([4]; Table 2) [µg/mL] | IC50 ([5]; Table 2) [µg/mL] |
| --- | --- | --- | --- | --- | --- | --- | --- | --- | --- | --- | --- | --- | --- | --- |
| COC[C@H]1OC(=O)/C(=C/Nc2ccccc2)C2=C(O)C(=O)C3=C([C@H](OC(C)=O)C[C@]4(C)[C@@H](O)CC[C@@H]34)[C@]21C [Compound 3, (1E,4S,4aR,5R,6aS,7S,9aR)-1-(anilinomethylene)-7,11-dihydroxy-4-(methoxymethyl)-4a,6a-dimethyl-2,10-dioxo-1,2,4,4a,5,6,6a,7,8,9,9a,10-dodecahydroindeno[4,5-h]isochromen-5-yl acetate] | 9.17 | 0.228 | > 0.1 | 3.5 | 5 | 15 | 12 | – | – | – | – | – | – | – |
| COCC1OC(=O)C(=CN(CCO)CCO)C2=C(O)C(=O)C3=C(C(OC(C)=O)CC4(C)C(O)CCC34)C21C (stereo not shown) [Compound 19, Acetic acid 4-{[bis-(2-hydroxy-ethyl)-amino]-methylene}-6,17-dihydroxy-1-methoxymethyl-10,13-dimethyl-3,7-dioxo-1,3,4,7,10,11,12,13,14,15,16,17-dodecahydro-2-oxa-cyclopenta[a]phenanthren-11-yl ester] | – | – | – | – | – | – | – | > 18.7 | 0.918 | > 0.1 | 0.07 (≈ 0.131 µM) | 1.2 (≈ 2.24 µM) | 6 (≈ 11.2 µM) | 1.7 (≈ 3.17 µM) |
| COCC1OC(=O)C(=CN(C)C(C)(C)C)C2=C(O)C(=O)C3=C(C(OC(C)=O)CC4(C)C(O)CCC34)C21C (stereo not shown) [Compound 20, Acetic acid 4-[(tert-butyl-methyl-amino)-methylene]-6,17-dihydroxy-1-methoxymethyl-10,13-dimethyl-3,7-dioxo-1,3,4,7,10,11,12,13,14,15,16,17-dodecahydro-2-oxa-cyclopenta[a]phenanthren-11-yl ester] | – | – | – | – | – | – | – | > 19.3 | 0.44 | > 0.1 | 0.06 (≈ 0.116 µM) | 0.62 (≈ 1.2 µM) | 5 (≈ 9.66 µM) | 1.1 (≈ 2.13 µM) |
| COCC1OC(=O)C(=CN(CCCN(C)C)CCCN(C)C)C2=C(O)C(=O)C3=C(C(OC(C)=O)CC4(C)C(O)CCC34)C21C (stereo not shown) [Compound 21, Acetic acid 4-{[bis-(3-dimethylamino-propyl)-amino]-methylene}-6,17-dihydroxy-1-methoxymethyl-10,13-dimethyl-3,7-dioxo-1,3,4,7,10,11,12,13,14,15,16,17-dodecahydro-2-oxa-cyclopenta[a]phenanthren-11-yl ester] | – | – | – | – | – | – | – | 3.56 | 0.022 | 0.1 (≈ 0.162 µM) | 0.16 (≈ 0.259 µM) | 3.9 (≈ 6.31 µM) | 11 (≈ 17.8 µM) | 12 (≈ 19.4 µM) |
| COCC1OC(=O)C(=CN2CCC(C(=O)OC)CC2)C2=C(O)C(=O)C3=C(C(OC(C)=O)CC4(C)C(O)CCC34)C21C (stereo not shown) [Compound 22, 1-(11-Acetoxy-6,17-dihydroxy-1-methoxymethyl-10,13-dimethyl-3,7-dioxo-1,7,10,11,12,13,14,15,16,17-decahydro-2-oxa-cyclopenta[a]phenanthren-4-ylidenemethyl)-piperidine-4-carboxylic acid methyl ester] | – | – | – | – | – | – | – | 1.69 | 0.052 | 0.1 (≈ 0.174 µM) | 0.29 (≈ 0.506 µM) | 3.5 (≈ 6.1 µM) | 18 (≈ 31.4 µM) | 17 (≈ 29.6 µM) |
| COCC1OC(=O)C(=CN2CCC(C(=O)O)CC2)C2=C(O)C(=O)C3=C(C(OC(C)=O)CC4(C)C(O)CCC34)C21C (stereo not shown) [Compound 23, 1-(11-Acetoxy-6,17-dihydroxy-1-methoxymethyl-10,13-dimethyl-3,7-dioxo-1,7,10,11,12,13,14,15,16,17-decahydro-2-oxa-cyclopenta[a]phenanthren-4-ylidenemethyl)-piperidine-4-carboxylic acid] | – | – | – | – | – | – | – | 0.822 | 0.033 | 0.1 (≈ 0.179 µM) | 0.28 (≈ 0.5 µM) | 4 (≈ 7.15 µM) | 17 (≈ 30.4 µM) | 17 (≈ 30.4 µM) |
| COCC1OC(=O)C(=CN(C)C(C=C(C)C(=O)OC)C(C)C)C2=C(O)C(=O)C3=C(C(OC(C)=O)CC4(C)C(O)CCC34)C21C (stereo not shown) [Compound 24, 4-[(11-Acetoxy-6,17-dihydroxy-1-methoxymethyl-10,13-dimethyl-3,7-dioxo-1,7,10,11,12,13,14,15,16,17-decahydro-2-oxa-cyclopenta[a]phenanthren-4-ylidenemethyl)-methyl-amino]-2,5-dimethyl-hex-2-enoic acid methyl ester] | – | – | – | – | – | – | – | > 16.2 | 5.4 | > 0.1 | 0.13 (≈ 0.211 µM) | 1.05 (≈ 1.71 µM) | 10.1 (≈ 16.3 µM) | 4 (≈ 6.5 µM) |
| COCC1OC(=O)C(=CN(C)CCCN2CCN(c3ccc(OC)cc3)CC2)C2=C(O)C(=O)C3=C(C(OC(C)=O)CC4(C)C(O)CCC34)C21C (stereo not shown) [Compound 25, Acetic acid 6,17-dihydroxy-1-methoxymethyl-4-[({3-[4-(4-methoxy-phenyl)-piperazin-1-yl]-propyl}-methyl-amino)-methylene]-10,13-dimethyl-3,7-dioxo-1,3,4,7,10,11,12,13,14,15,16,17-dodecahydro-2-oxa-cyclopenta[a]phenanthren-11-yl ester] | – | – | – | – | – | – | – | 1.35 | 0.015 | 0.02 (≈ 0.0288 µM) | 0.43 (≈ 0.62 µM) | 4.3 (≈ 6.2 µM) | 16 (≈ 23.1 µM) | 20.5 (≈ 29.5 µM) |
| COCC1OC(=O)C(=CN(C)CCCN2CCN(C)CC2)C2=C(O)C(=O)C3=C(C(OC(C)=O)CC4(C)C(O)CCC34)C21C (stereo not shown) [Compound 26, Acetic acid 6,17-dihydroxy-1-methoxymethyl-10,13-dimethyl-4-({methyl-[3-(4-methyl-piperazin-1-yl)-propyl]-amino}-methylene)-3,7-dioxo-1,3,4,7,10,11,12,13,14,15,16,17-dodecahydro-2-oxa-cyclopenta[a]phenanthren-11-yl ester] | – | – | – | – | – | – | – | 2.33 | 0.019 | 0.02 (≈ 0.0332 µM) | 0.28 (≈ 0.465 µM) | 3.9 (≈ 6.48 µM) | 21 (≈ 34.9 µM) | 17 (≈ 28.3 µM) |
| COCC1OC(=O)C(=CN2CCC(=O)CC2)C2=C(O)C(=O)C3=C(C(OC(C)=O)CC4(C)C(O)CCC34)C21C (stereo not shown) [Compound 44, Acetic acid 6,17-dihydroxy-1-methoxymethyl-10,13-dimethyl-3,7-dioxo-4-(4-oxo-piperidin-1-ylmethylene)-1,3,4,7,10,11,12,13,14,15,16,17-dodecahydro-2-oxa-cyclopenta[a]phenanthren-11-yl ester] | – | – | – | – | – | – | – | 1.11 | 0.0602 | 0.02 (≈ 0.0378 µM) | 0.37 (≈ 0.699 µM) | 3 (≈ 5.66 µM) | – | – |
| CCN(C=C1C(=O)OC(COC)C2(C)C3=C(C(=O)C(O)=C12)C1CCC(O)C1(C)CC3)CCN(C)C (stereo not shown) [Compound 45, 4-{[(2-Dimethylamino-ethyl)-ethyl-amino]-methylene}-6,17-dihydroxy-1-methoxymethyl-10,13-dimethyl-10,11,12,13,14,15,16,17-octahydro-1H,4H-2-oxa-cyclopenta[a]phenanthrene-3,7-dione] | – | – | – | – | – | – | – | > 20.5 | 0.369 | 0.1 (≈ 0.205 µM) | 0.65 (≈ 1.33 µM) | 5 (≈ 10.2 µM) | – | – |
| CCN(C=C1C(=O)OC(COC)C2(C)C1=C(O)C(=O)C1=C2C(OC(C)=O)CC2(C)C(O)CCC12)CCN(C)C (stereo not shown) [Compound 46, Acetic acid 4-{[(2-dimethylamino-ethyl)-ethyl-amino]-methylene}-6,17-dihydroxy-1-methoxymethyl-10,13-dimethyl-3,7-dioxo-1,3,4,7,10,11,12,13,14,15,16,17-dodecahydro-2-oxa-cyclopenta[a]phenanthren-11-yl ester] | – | – | – | – | – | – | – | 0.878 | 0.0051 | 0.02 (≈ 0.0366 µM) | 0.65 (≈ 1.19 µM) | 3.3 (≈ 6.04 µM) | – | – |
| COCC1OC(=O)C(=CN2CCC(N3CCCCC3)CC2)C2=C(O)C(=O)C3=C(C(OC(C)=O)CC4(C)C(O)CCC34)C21C (stereo not shown) [Compound 47, Acetic acid 4-[1,4′]bipiperidinyl-1′-ylmethylene-6,17-dihydroxy-1-methoxymethyl-10,13-dimethyl-3,7-dioxo-1,3,4,7,10,11,12,13,14,15,16,17-dodecahydro-2-oxa-cyclopenta[a]phenanthren-11-yl ester] | – | – | – | – | – | – | – | 0.568 | 0.0633 | 0.05 (≈ 0.0835 µM) | 0.9 (≈ 1.5 µM) | 5.8 (≈ 9.69 µM) | – | – |
| COCC1OC(=O)C(=CN2CCOCC2)C2=C(O)C(=O)C3=C(C(OC(C)=O)CC4(C)C(O)CCC34)C21C (stereo not shown) [Compound 48, Acetic acid 6,17-dihydroxy-1-methoxymethyl-10,13-dimethyl-4-morpholin-4-ylmethylene-3,7-dioxo-1,3,4,7,10,11,12,13,14,15,16,17-dodecahydro-2-oxa-cyclopenta[a]phenanthren-11-yl ester] | – | – | – | – | – | – | – | 0.831 | 0.0361 | 0.02 (≈ 0.0386 µM) | 0.5 (≈ 0.966 µM) | 3 (≈ 5.8 µM) | – | – |

Reference: patent publication US7666901B2, “Analogs of 17-hydroxywortmannin as PI3K inhibitors” (Wyeth, priority 2004, dated 2010)
